Results on one molecule are retold here after patent US7687457B2, “Cyclic molecular framework and derivatives thereof” (The University of Queensland, priority 1999, dated 2010).

This experiment deals with erythrocytes. As to the kind of experiment: haemolytic activity, lysis of erythrocytes. The experiment is classed as cell-based. The conditions noted are these: haemolysis; read-out: concentration causing 50% lysis of erythrocytes.

The structures appear in SMILES notation. pEC50: −log10 of the molar value. Where a SMILES comes first, the peptide text is derived from it.

Take `CC[C@H](C)[C@@H]1NC(=O)CNC(=O)[C@H](CC(N)=O)NC(=O)[C@H](Cc2ccc(O)cc2)NC(=O)[C@@H]2CSSC[C@@H]3NC(=O)[C@@H]4CCCN4C(=O)[C@H]([C@@H](C)CC)NC(=O)[C@H](Cc4ccc(O)cc4)NC(=O)[C@H](C(C)C)NC(=O)[C@@H]4CSSC[C@H](NC(=O)[C@H](CO)NC(=O)[C@H](CSSC[C@H](NC(=O)[C@@H]5CCCN5C1=O)C(=O)N[C@@H](C)C(=O)N[C@@H](CCC(=O)O)C(=O)N[C@@H](CO)C(=O)N4)NC(=O)CNC(=O)[C@H](CC(C)C)NC(=O)[C@H](CC(C)C)NC(=O)[C@H](C)NC(=O)[C@H]([C@@H](C)O)NC(=O)[C@H](C(C)C)NC(=O)[C@H]([C@@H](C)O)NC3=O)C(=O)N[C@@H](CO)C(=O)N[C@@H](CC(N)=O)C(=O)N[C@@H](CCCNC(=N)N)C(=O)N[C@@H](C(C)C)C(=O)N2` [cycloviolacin 01] (HELM PEPTIDE1{A.E.S.C.V.Y.I.P.C.T.V.T.A.L.L.G.C.S.C.S.N.R.V.C.Y.N.G.I.P.C}$PEPTIDE1,PEPTIDE1,4:R3-19:R3|PEPTIDE1,PEPTIDE1,9:R3-24:R3|PEPTIDE1,PEPTIDE1,17:R3-30:R3|PEPTIDE1,PEPTIDE1,1:R1-30:R2$$$V2.0): the pEC50 was ~4.70.
